Results reported in patent US6150351A, “Cephem compounds and pharmaceutical use thereof” (Fujisawa Pharmaceutical Co., Ltd., priority 1996, dated 2000).

How the values were obtained:
[1] = system: H. pylori FP 1757; assay: Therapeutic effects in mouse model (H. pylori infection, eradication); assay type: in vivo, male ICR mice; conditions: 0.32 mg/kg/time, oral, twice per day for 4 days; mice sacrificed 2 weeks after final administration
Procedure: 1.5 ml of approx. 10^8 cfu/ml of H. pylori FP 1757 was orally infected into 4 weeks old male ICR mice (Nippon SLC, Hamamatsu, Japan) which had been fasted overnight. […] The test compound was suspended in 0.5% methylcellulose and administered to the mice. The mice were sacrificed at 2 weeks after the final administration and the gastric mucosa was scraped and homogenized in 1 ml of 0.1 M phosphate buffered saline. 0.1 ml aliquots were inoculated onto Brucella agar plate containing 3% horse serum, 2% starch and antibiotics. All plates were incubated at 37° C. under 10% CO2 for 4 or 5 days. Colonies grown on the plate were counted, and the therapeutic effect was evaluated.

[2] = system: H. pylori FP 1757; assay: In vitro anti-microbial activity against Helicobacter pylori (two-fold agar plate dilution method); assay type: cell-based; conditions: FP1757, 72 h, test strain H. pylori FP 1757, Brucella agar with 7% horse blood, 37° C., 3 days, 10% CO2
[3] = in vivo; parameters: species or system male rats; conditions: rat, po
Procedure: The test compound suspended in 0.5% methylcellulose was orally administered to male rats at a dose of 100 or 32 mg/kg/day for 2 weeks.

Question: For O=C(O)Cc1csc(SC2=C(C(=O)O)N3C(=O)[C@@H](NC(=O)Cc4cccs4)[C@H]3SC2)n1 [Example 72, 7β-[2-(2-Thienyl)acetamido]-3-(4-carboxymethylthiazol-2-yl)thio-3-cephem-4-carboxylic acid], which eradication [1] is on record?
Answer: > 80%

Question: Which MIC [2] does the source give for NCc1nnc(SC2=C(C(=O)O)N3C(=O)[C@@H](NC(=O)Cc4ccccc4)[C@H]3SC2)s1.O=C(O)C(F)(F)F [Example 24, 7β-(2-phenylacetamido)-3-(5-aminomethyl-1,3,4-thiadiazol-2-yl)thio-3-cephem-4-carboxylic acid trifluoroacetic acid salt] here?
Answer: < 0.02 µg/mL

Question: For NC(=O)Cc1csc(SC2=C(C(=O)O)N3C(=O)[C@@H](NC(=O)Cc4ccccc4)[C@H]3SC2)n1 [Example 14, 7β-(2-Phenylacetamido)-3-(4-carbamoylmethylthiazol-2-yl)thio-3-cephem-4-carboxylic acid], which NOAEL at 336 h [3] is on record?
Answer: 100 mg/kg/day
